Measurements as given in BindingDB's records for doi:10.1016/j.bmc.2005.09.050 (Lund University, 2006).
pKd: −log10 of the molar value.

Experiments:
Experiment in all cases: Fluorescence Polarization Assay
Galectin-9 = Galectin-9 (Homo sapiens, UniProt O00182)
Protocol: (§1) In fluorescence polarization measurements, a fluorescent probe was excited with plane-polarized light and the degree of polarization remaining in the emitted light is measured. When the probe is bound to protein, it rotates slower than when free, and the remaining fluorescence polarization is higher. The fluorescent anisotropy value for a probe-protein mixture is the average of the value for bound and free probe. For the direct binding asaay, the data (anisotropy, A in mA vs galectin concentration, [G] in uM) were fitted to a simplified formula to obtain Kd.

Galectin-1 = Galectin-1 (Homo sapiens, UniProt P09382); settings: pH 7.2; 24 °C
Sequence of Galectin-1 (P09382 whole entry): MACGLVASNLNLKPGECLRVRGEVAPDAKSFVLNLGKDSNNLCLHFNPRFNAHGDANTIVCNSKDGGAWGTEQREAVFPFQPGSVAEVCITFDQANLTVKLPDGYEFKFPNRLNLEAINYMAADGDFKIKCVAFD
Protocol: as §1

Galectin-8 = molecular target: T1, Galectin-8 (Homo sapiens, UniProt O00214)
T1 sequence (O00214 whole entry): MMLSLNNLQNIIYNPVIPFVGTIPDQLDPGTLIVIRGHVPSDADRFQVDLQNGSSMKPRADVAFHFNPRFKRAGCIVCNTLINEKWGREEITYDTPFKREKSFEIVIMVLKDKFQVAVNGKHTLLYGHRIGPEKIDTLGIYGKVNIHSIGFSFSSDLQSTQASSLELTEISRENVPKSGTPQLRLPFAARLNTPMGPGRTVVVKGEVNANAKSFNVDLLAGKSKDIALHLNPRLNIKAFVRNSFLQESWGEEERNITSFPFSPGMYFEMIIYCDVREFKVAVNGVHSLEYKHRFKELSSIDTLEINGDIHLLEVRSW
Protocol: as §1

Galectin-3 = Galectin-3 (Homo sapiens, UniProt P17931); settings: pH 7.2; 24 °C
Sequence of Galectin-3 (P17931 whole entry): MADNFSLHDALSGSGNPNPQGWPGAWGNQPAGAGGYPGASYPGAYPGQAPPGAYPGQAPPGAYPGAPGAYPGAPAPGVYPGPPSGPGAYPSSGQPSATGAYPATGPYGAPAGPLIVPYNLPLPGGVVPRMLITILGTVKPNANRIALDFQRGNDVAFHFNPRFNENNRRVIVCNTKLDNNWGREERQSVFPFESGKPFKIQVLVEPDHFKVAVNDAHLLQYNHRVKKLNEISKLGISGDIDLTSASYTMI
Protocol: as §1

Galectin-7 = Galectin-7 (Homo sapiens, UniProt P47929)
Sequence of Galectin-7 (P47929 whole entry): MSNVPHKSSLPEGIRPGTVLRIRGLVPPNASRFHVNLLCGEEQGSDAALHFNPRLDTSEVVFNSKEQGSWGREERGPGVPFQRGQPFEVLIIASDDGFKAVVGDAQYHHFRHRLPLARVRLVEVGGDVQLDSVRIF
Protocol: as §1

Sequence of Galectin-9 (O00182 whole entry): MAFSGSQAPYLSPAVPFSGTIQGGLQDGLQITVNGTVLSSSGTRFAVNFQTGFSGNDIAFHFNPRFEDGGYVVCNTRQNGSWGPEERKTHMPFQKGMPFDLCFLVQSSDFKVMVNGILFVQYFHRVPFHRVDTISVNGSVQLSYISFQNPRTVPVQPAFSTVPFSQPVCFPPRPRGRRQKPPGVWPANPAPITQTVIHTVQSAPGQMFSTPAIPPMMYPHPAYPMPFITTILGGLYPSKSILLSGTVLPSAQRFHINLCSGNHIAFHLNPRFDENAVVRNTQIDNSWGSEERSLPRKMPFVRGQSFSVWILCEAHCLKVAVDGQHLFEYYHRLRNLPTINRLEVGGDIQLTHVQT

SMILES	pKd (Galectin-9)	pKd (Galectin-1)	pKd (Galectin-8)	pKd (Galectin-3)	pKd (Galectin-7)
CO[C@@H]1O[C@H](CO)[C@@H](O[C@@H]2O[C@H](CO)[C@H](O)[C@H](NC(=S)NC3CCCCC3)[C@H]2O)[C@H](O)[C@H]1NC(C)=O [N-[(2R,3R,4R,5S,6R)-5-{[(2S,3R,4S,5R,6R)-4-[(cyclohexylcarbamothioyl)amino]-3,5-dihydroxy-6-(hydroxymethyl)oxan-2-yl]oxy}-4-hydroxy-6-(hydroxymethyl)-2-methoxyoxan-3-yl]acetamide]	4.10	4.40	3.19	4.24	4.62
CCCCNC(=S)N[C@H]1[C@@H](O)[C@@H](CO)O[C@@H](O[C@H]2[C@H](O)[C@@H](NC(C)=O)[C@H](OC)O[C@@H]2CO)[C@@H]1O [N-[(2R,3R,4R,5S,6R)-5-{[(2S,3R,4S,5R,6R)-4-[(butylcarbamothioyl)amino]-3,5-dihydroxy-6-(hydroxymethyl)oxan-2-yl]oxy}-4-hydroxy-6-(hydroxymethyl)-2-methoxyoxan-3-yl]acetamide]	4.16	4.64	< 2.52	4.64	3.89
CO[C@@H]1O[C@H](CO)[C@@H](O[C@@H]2O[C@H](CO)[C@H](O)[C@H](O)[C@H]2O)[C@H](O)[C@H]1NC(C)=O [N-[(2R,3R,4R,5S,6R)-4-hydroxy-6-(hydroxymethyl)-2-methoxy-5-{[(2S,3R,4S,5R,6R)-3,4,5-trihydroxy-6-(hydroxymethyl)oxan-2-yl]oxy}oxan-3-yl]acetamide]	3.30	4.15	3.15	4.17	3.31
CO[C@@H]1O[C@H](CO)[C@@H](O[C@@H]2O[C@H](CO)[C@H](O)[C@H](NC(=S)NCCCO)[C@H]2O)[C@H](O)[C@H]1NC(C)=O [N-[(2R,3R,4R,5S,6R)-5-{[(2S,3R,4S,5R,6R)-3,5-dihydroxy-6-(hydroxymethyl)-4-{[(3-hydroxypropyl)carbamothioyl]amino}oxan-2-yl]oxy}-4-hydroxy-6-(hydroxymethyl)-2-methoxyoxan-3-yl]acetamide]	4.04	4.64	< 2.52	4.19	3.82
CO[C@@H]1O[C@H](CO)[C@@H](O[C@@H]2O[C@H](CO)[C@H](O)[C@H](NC(=S)N3CCOCC3)[C@H]2O)[C@H](O)[C@H]1NC(C)=O [N-[(2R,3R,4R,5S,6R)-5-{[(2S,3R,4S,5R,6R)-3,5-dihydroxy-6-(hydroxymethyl)-4-[(morpholin-4-ylmethanethioyl)amino]oxan-2-yl]oxy}-4-hydroxy-6-(hydroxymethyl)-2-methoxyoxan-3-yl]acetamide]	–	3.80	–	4.16	–
CNC(=S)N[C@H]1[C@@H](O)[C@@H](CO)O[C@@H](O[C@H]2[C@H](O)[C@@H](NC(C)=O)[C@H](OC)O[C@@H]2CO)[C@@H]1O [N-[(2R,3R,4R,5S,6R)-5-{[(2S,3R,4S,5R,6R)-3,5-dihydroxy-6-(hydroxymethyl)-4-[(methylcarbamothioyl)amino]oxan-2-yl]oxy}-4-hydroxy-6-(hydroxymethyl)-2-methoxyoxan-3-yl]acetamide]	3.96	4.31	< 2.52	4.42	4.19
CO[C@@H]1O[C@H](CO)[C@@H](O[C@@H]2O[C@H](CO)[C@H](O)[C@H](NC(=S)NCCO)[C@H]2O)[C@H](O)[C@H]1NC(C)=O [N-[(2R,3R,4R,5S,6R)-5-{[(2S,3R,4S,5R,6R)-3,5-dihydroxy-4-{[(2-hydroxyethyl)carbamothioyl]amino}-6-(hydroxymethyl)oxan-2-yl]oxy}-4-hydroxy-6-(hydroxymethyl)-2-methoxyoxan-3-yl]acetamide]	3.92	4.31	3.30	4.13	3.89
CO[C@@H]1O[C@H](CO)[C@@H](O[C@@H]2O[C@H](CO)[C@H](O)[C@H](NC(=S)NCc3ccccc3)[C@H]2O)[C@H](O)[C@H]1NC(C)=O [N-[(2R,3R,4R,5S,6R)-5-{[(2S,3R,4S,5R,6R)-4-[(benzylcarbamothioyl)amino]-3,5-dihydroxy-6-(hydroxymethyl)oxan-2-yl]oxy}-4-hydroxy-6-(hydroxymethyl)-2-methoxyoxan-3-yl]acetamide]	–	4.46	–	4.82	–
CO[C@@H]1O[C@H](CO)[C@@H](O[C@@H]2O[C@H](CO)[C@H](O)[C@H](NC(N)=S)[C@H]2O)[C@H](O)[C@H]1NC(C)=O [N-[(2R,3R,4R,5S,6R)-5-{[(2S,3R,4S,5R,6R)-4-(carbamothioylamino)-3,5-dihydroxy-6-(hydroxymethyl)oxan-2-yl]oxy}-4-hydroxy-6-(hydroxymethyl)-2-methoxyoxan-3-yl]acetamide]	4.12	4.37	< 2.52	4.19	3.77
CO[C@@H]1O[C@H](CO)[C@@H](O[C@@H]2O[C@H](CO)[C@H](O)[C@H](NC(=S)NCc3cccnc3)[C@H]2O)[C@H](O)[C@H]1NC(C)=O [N-[(2R,3R,4R,5S,6R)-5-{[(2S,3R,4S,5R,6R)-3,5-dihydroxy-6-(hydroxymethyl)-4-{[(pyridin-3-ylmethyl)carbamothioyl]amino}oxan-2-yl]oxy}-4-hydroxy-6-(hydroxymethyl)-2-methoxyoxan-3-yl]acetamide]	4.33	4.37	–	4.46	4.64
CCN(CC)C(=S)N[C@H]1[C@@H](O)[C@@H](CO)O[C@@H](O[C@H]2[C@H](O)[C@@H](NC(C)=O)[C@H](OC)O[C@@H]2CO)[C@@H]1O [N-[(2R,3R,4R,5S,6R)-5-{[(2S,3R,4S,5R,6R)-4-[(diethylcarbamothioyl)amino]-3,5-dihydroxy-6-(hydroxymethyl)oxan-2-yl]oxy}-4-hydroxy-6-(hydroxymethyl)-2-methoxyoxan-3-yl]acetamide]	3.55	4.34	< 2.52	4.37	3.74
CO[C@@H]1O[C@H](CO)[C@@H](O[C@@H]2O[C@H](CO)[C@H](O)[C@H](NC(=S)N[C@H]3[C@@H](O)[C@@H](CO)O[C@@H](O[C@H]4[C@H](O)[C@@H](NC(C)=O)[C@H](OC)O[C@@H]4CO)[C@@H]3O)[C@H]2O)[C@H](O)[C@H]1NC(C)=O [N-[(2R,3R,4R,5S,6R)-5-{[(2S,3R,4S,5R,6R)-4-({[(2S,3R,4S,5R,6R)-2-{[(2R,3S,4R,5R,6R)-5-acetamido-4-hydroxy-2-(hydroxymethyl)-6-methoxyoxan-3-yl]oxy}-3,5-dihydroxy-6-(hydroxymethyl)oxan-4-yl]carbamothioyl}amino)-3,5-dihydroxy-6-(hydroxymethyl)oxan-2-yl]oxy}-4-hydroxy-6-(hydroxymethyl)-2-methoxyoxan-3-yl]acetamide]	3.62	4.24	< 2.52	3.80	3.77
CO[C@@H]1O[C@H](CO)[C@@H](O[C@@H]2O[C@H](CO)[C@H](O)[C@H](NC(=S)Nc3ccccc3)[C@H]2O)[C@H](O)[C@H]1NC(C)=O [N-[(2R,3R,4R,5S,6R)-5-{[(2S,3R,4S,5R,6R)-3,5-dihydroxy-6-(hydroxymethyl)-4-[(phenylcarbamothioyl)amino]oxan-2-yl]oxy}-4-hydroxy-6-(hydroxymethyl)-2-methoxyoxan-3-yl]acetamide]	4.00	4.35	< 2.52	4.40	3.96
C=CCNC(=S)N[C@H]1[C@@H](O)[C@@H](CO)O[C@@H](O[C@H]2[C@H](O)[C@@H](NC(C)=O)[C@H](OC)O[C@@H]2CO)[C@@H]1O [N-[(2R,3R,4R,5S,6R)-5-{[(2S,3R,4S,5R,6R)-3,5-dihydroxy-6-(hydroxymethyl)-4-[(prop-2-en-1-ylcarbamothioyl)amino]oxan-2-yl]oxy}-4-hydroxy-6-(hydroxymethyl)-2-methoxyoxan-3-yl]acetamide]	4.01	4.47	< 2.52	4.28	4.00
